Source: patent US9272040B2, “5-CNAC as oral delivery agent for parathyroid hormone fragments” (Novartis AG, priority 2001, dated 2016)

Assay: Primate administration: plasma hPTH by radioimmunoassay after oral capsule
Format: in vivo
Conditions: Table 2 versus Table 1, Rhesus monkey
Protocol: The capsules prepared in Example 1 are administered to Rhesus monkeys as follows: four monkeys in a group are each dosed with one capsule prepared as in Example 1 as follows:
The Rhesus monkeys fast overnight prior to dosing and are restrained in chairs fully conscious, for the duration of the study period. The capsules are orally administered via a gavage tube followed by 10 ml of water.
Blood samples are collected at 0, 0.25, 0.5, 0.75, 1, 1.5, 2, 3, 4, 5, and 6 hours after administration. Plasma hPTH levels are determined by radioimmunoassay. The primate plasma PTH results from each group of monkeys are averaged and the maximum mean plasma calculated.

## O=C(O)CCCCCCCNC(=O)c1cc(Cl)ccc1O [Capsule 5-CNAC, N-(5-chlorosalicyloyl)-8-aminocaprylic acid]
  effect of carrier on oral delivery of the hPTH fragment: significantly facilitates the oral delivery of the hPTH fragment
